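In this assay, cells in 96-well plates receive the compound at five concentrations for 48 hours. Endpoints are linearly interpolated between the surrounding concentrations. TGI: concentration producing complete growth inhibition.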
Assays:
Experiment in all cases: NCI tumour cell line growth inhibition, 48 h
HCC-2998 colon = tested on: HCC-2998 colon
KM12 colon = tested on: KM12 colon
HL-60(TB) leukemia = tested on: HL-60(TB) leukemia
SK-MEL-5 melanoma = tested on: SK-MEL-5 melanoma
SW-620 colon = tested on: SW-620 colon
OVCAR-4 ovarian = tested on: OVCAR-4 ovarian
UO-31 renal = tested on: UO-31 renal
HCT-116 colon = tested on: HCT-116 colon
T-47D breast = tested on: T-47D breast
BT-549 breast = tested on: BT-549 breast
NCI-H460 lung = tested on: NCI-H460 lung

| Compound | TGI (HCC-2998 colon) | TGI (KM12 colon) | TGI (HL-60(TB) leukemia) | TGI (SK-MEL-5 melanoma) | TGI (SW-620 colon) | TGI (OVCAR-4 ovarian) | TGI (UO-31 renal) | TGI (HCT-116 colon) | TGI (T-47D breast) | TGI (BT-549 breast) | TGI (NCI-H460 lung) |
| --- | --- | --- | --- | --- | --- | --- | --- | --- | --- | --- | --- |
| Cc1nc2ccccc2nc1NS(=O)(=O)c1ccc(N)cc1 | > 100 µM | > 100 µM | > 100 µM | > 100 µM | > 100 µM | > 100 µM | > 100 µM |  |  |  |  |
| Nc1ncc2c(n1)-c1ccccc1OC2NC1CC1 (stereo not given) |  | > 100 µM | > 100 µM | > 100 µM | > 100 µM | > 100 µM | > 100 µM | > 100 µM | > 100 µM | > 100 µM | > 100 µM |
| O=S(=O)(CC1=NC2C=CC=CC2N=C1)NCc1ccccc1 (stereo not given) | > 100 µM | > 100 µM | > 100 µM | > 100 µM | > 100 µM | > 100 µM |  | > 100 µM |  |  | > 100 µM |
| Cc1ccc(-c2c(C#N)c(-c3ccc(N(C)C)cc3)c(C#N)c(=O)n2NS(=O)(=O)c2ccccc2)cc1 | > 100 µM | > 100 µM | > 100 µM | 36.8 µM | > 100 µM | > 100 µM |  | > 100 µM |  | > 100 µM | > 100 µM |
| CCCCCCCCCC(=O)OCC1(CO)C/C(=C/CC(C(C)C)C(C)C)C(=O)O1 (stereo not given) | > 100 µM | 83.7 µM |  | > 100 µM | 81.6 µM | > 100 µM | 95.8 µM | > 100 µM | > 100 µM | > 100 µM | > 100 µM |
| N#Cc1c(-c2ccccc2)c(C#N)c(=O)n(NS(=O)(=O)c2ccccc2)c1O | > 100 µM | > 100 µM | > 100 µM | > 100 µM | > 100 µM | > 100 µM |  | > 100 µM |  | > 100 µM | > 100 µM |
| CSc1nc(C)cc(Nc2ccc(O)c(CN3CCCCC3)c2)n1 |  | > 100 µM |  | > 100 µM | > 100 µM | > 100 µM | > 100 µM | > 100 µM | > 100 µM | > 100 µM |  |
| Cc1ccc(S(=O)(=O)N(c2ccccc2F)C2CCCCC2O)cc1 (stereo not given) | > 100 µM | > 100 µM | > 100 µM | 56.9 µM | > 100 µM | > 100 µM | > 100 µM | > 100 µM |  | 61.8 µM | > 100 µM |
| NN/C(=N\S(=O)(=O)c1cc(Cl)c(Oc2ccc([N+](=O)[O-])cc2Cl)c(Cl)c1)Nc1ccc(Cl)cc1 |  | 42.1 µM |  | 29.4 µM | > 100 µM | 57.1 µM | 32.3 µM | 29.1 µM | 56.5 µM | 40.9 µM | 31.9 µM |
| CC(=O)Nc1ccc(-c2nnc(SCC(=O)Nc3ccccc3Cl)o2)cc1 | > 100 µM | > 100 µM | > 100 µM | > 100 µM | > 100 µM | > 100 µM | > 100 µM | > 100 µM |  |  | > 100 µM |
| O=C1/C(=C/c2cccc([N+](=O)[O-])c2)CCCc2ccccc21 | 22 µM | 16.5 µM | 21.6 µM |  | 17 µM | 33.4 µM | 30 µM | 17.2 µM |  | 28.1 µM | 34.1 µM |
| CCC(=O)N(c1ccccc1)C(C)CN1CCC(O)(c2ccccc2)CC1 (stereo not given) |  |  | > 100 µM | > 100 µM |  | > 100 µM | > 100 µM | > 100 µM | > 100 µM | > 100 µM |  |
| CCOP(=O)(CS(C)=O)O[C@@H]1C[C@H](C)CC[C@H]1C(C)C (stereo not given in full) |  | > 28.7 µM | > 36.4 µM | 6.85 µM | 14.6 µM | > 39.3 µM | 7.15 µM | > 23.9 µM | > 29.7 µM | 17.3 µM | 17.6 µM |
| CCCCOC(=O)/C(CC(=O)C=C(C)C)=N\NS(=O)(=O)c1ccc(C)cc1 | > 100 µM | > 100 µM | > 100 µM | > 100 µM |  | > 100 µM | > 100 µM | > 100 µM |  |  | > 100 µM |
| COc1ccc(NC=O)c(C(O)CCNC(C)=O)c1 (stereo not given) |  | > 100 µM | > 100 µM | > 100 µM | > 100 µM | > 100 µM | > 100 µM | > 100 µM | > 100 µM | > 100 µM | > 100 µM |
| Cc1ccc(S(=O)(=O)N/N=C2\C(=O)C3CC2C(Cl)C3Cl)cc1 (stereo not given) | > 100 µM |  | > 100 µM | > 100 µM | > 100 µM | > 100 µM | > 100 µM | > 100 µM |  |  | > 100 µM |
| C1CSCC2(COC2)CS1 | > 100 µM | > 100 µM |  | > 100 µM | > 100 µM | > 100 µM | > 100 µM | > 100 µM |  |  | > 100 µM |
| O=C(Cc1ccccc1)N/N=C(/CCN1CCCC1)CC(c1ccccc1)c1c(O)c2ccccc2oc1=O (stereo not given) | > 100 µM | > 100 µM | > 100 µM | > 100 µM | > 100 µM | > 100 µM | > 100 µM | > 100 µM |  | > 100 µM |  |
| O=c1c2cc(I)ccc2nc(-c2cccs2)n1Nc1ccccc1 | 50.8 µM | > 100 µM | > 100 µM | > 100 µM | > 100 µM | > 100 µM | > 100 µM | > 100 µM |  | > 100 µM | > 100 µM |
| O=C(/C=C/c1ccc(O)c(O)c1)NC(CO)C(=O)O (stereo not given) | > 100 µM | > 100 µM |  | > 100 µM | > 100 µM | > 100 µM | > 100 µM | > 100 µM | > 100 µM | > 100 µM | > 100 µM |
| C1=CCN(c2ccccc2)CC1 | > 100 µM | > 100 µM | 90.1 µM | > 100 µM | 47.3 µM |  | > 100 µM | > 100 µM |  |  | > 100 µM |
| CSC1=N/C(=C\c2cccs2)C(=O)N1CN1CCCCC1 |  | > 100 µM |  | > 100 µM | > 100 µM |  | > 100 µM | > 100 µM |  |  |  |
| Nc1ccc(N=Nc2ccc(/C=C/c3ccc(N=Nc4ccc(N)c5ccc(S(=O)(=O)O)cc45)cc3S(=O)(=O)O)c(S(=O)(=O)O)c2)c2cc(S(=O)(=O)O)ccc12 | > 100 µM | > 100 µM | > 100 µM | > 100 µM | > 100 µM | > 100 µM | > 100 µM | > 100 µM |  |  | > 100 µM |
